Measurements from patent US20260070886A1, “QUINOLINE PIPERAZINE DERIVATIVES, PHARMACEUTICAL COMPOSITION AND USES THEREOF” (priority 2022, published 2026).

Assays:
Assay type in all cases: cell-based
[1] = test system: NCI-H-460 cells; assay: Cell cytotoxicity assay, NCI-H-460 cells; details: Homo sapiens, NCI-H460, 72 hours, percent cytotoxicity against DMSO control; for cytotoxicity at 1 µM: 1 μM compound, read-out: Cell toxicity NCI-H-460 cells 1 μM; for cytotoxicity at 10 µM: 10 μM compound, read-out: Cell toxicity NCI-H-460 cells 10 μM
Text: (§1) The following human derived non-small cell lung cancer cell lines were used to test the efficiency of the compounds to cause cell death and assess the anti-cancer properties of said compounds: 1. A549 cells: adenocarcinomic human alveolar basal epithelial cells; these cells are used as models for the study of lung cancer and the development of drug therapies against it • 2. NCI-H-460 cells are also human lung cancer cells, and • 3. NCI-H-522 cells are also human lung cancer cells.
(§2) 500 cells/well/30 μL were seeded in a 384 well cell culture plate. Incubated over night at 37° C., 5% CO2 in cell culture incubator. 10 μL of 4× compound was added to the plates, and incubated for 72 hours at 37° C., 5% CO2 in cell culture incubator. Assay DMSO control were included for 0% cytotoxicity control. Assay was terminated by addition of 10 μL of the reagent CTG 2.0 detection reagent #G9242. Plates were incubated for 20 minute incubation at room temperature with shaking Plate were read in Envision. Ultrasensitive luminescence and data was analyzed and percent cytotoxicity of compounds was determined against DMSO control.
(§3) All the compounds, A1-A116, were tested for cell toxicity using said non-small cell lung cancer cell lines using the above described method.

[2] = test system: NCI-H-522 cells; assay: Cell cytotoxicity assay, NCI-H-522 cells; details: Homo sapiens, NCI-H522, 72 hours, percent cytotoxicity against DMSO control; for cytotoxicity at 1 µM: 1 μM compound, read-out: Cell toxicity NCI-H-522 cells 1 μM; for cytotoxicity at 10 µM: 10 μM compound, read-out: Cell toxicity NCI-H-522 cells 10 μM
Text: as §1, §2, §3

[3] = test system: A549 cells; assay: Cell cytotoxicity assay, A549 cells; details: Homo sapiens, 72 hours, percent cytotoxicity against DMSO control; for cytotoxicity at 1 µM: 1 μM compound, read-out: Cell toxicity A549 cells 1 μM; for cytotoxicity at 10 µM: 10 μM compound, read-out: Cell toxicity A549 cells 10 μM
Text: as §1, §2, §3

[4] = test system: Non-small cell lung cancer cell lines; assay: Cell toxicity assay, overall statement; details: summary in words of Table 6
Text: as §1, §2, §3
These selected derivatives of Formula A were further tested to confirm their efficiency as anti-cancer compounds.

| SMILES | cytotoxicity at 1 µM [1] | cytotoxicity at 10 µM [1] | cytotoxicity at 1 µM [2] | cytotoxicity at 10 µM [2] | cytotoxicity at 1 µM [3] | cytotoxicity at 10 µM [3] | activity against Non-small cell lung cancer (cell toxicity) [4] |
| --- | --- | --- | --- | --- | --- | --- | --- |
| Cc1cc(N2CCN(c3ccnc4cc(Cl)ccc34)CC2)nc(N2CCOCC2)n1 [Compound A16, 4-(4-(4-(7-chloroquinolin-4-yl)piperazin-1-yl)-6-methylpyrimidin-2-yl)morpholine] | -11% | -6% | 8% | 12% | 9% | -17% | active |
| COc1cc(Nc2nc(N3CCN(c4ccnc5cc(C(F)(F)F)ccc45)CC3)cc(C(F)(F)F)n2)cc(OC)c1 [Compound A45, N-(3,5-dimethoxyphenyl)-4-(trifluoromethyl)-6-(4-(7-(trifluoromethyl)quinolin-4-yl)piperazin-1-yl)pyrimidin-2-amine] | 0% | 12% | 7% | 55% | 8% | 83% | active |
| COc1cccc(Nc2nc(N3CCN(c4ccnc5cc(Cl)ccc45)CC3)cc(C(F)(F)F)n2)c1 [Compound A8, 4-(4-(7-chloroquinolin-4-yl)piperazin-1-yl)-N-(3-methoxyphenyl)-6-(trifluoromethyl)pyrimidin-2-amine] | -9% | -3% | 1% | 7% | 14% | 5% | active |
| COc1cccc(Nc2nc(C)cc(N3CCN(c4ccnc5cc(Cl)ccc45)CC3)n2)c1 [Compound A4, 4-(4-(7-chloroquinolin-4-yl)piperazin-1-yl)-N-(3-methoxyphenyl)-6-methylpyrimidin-2-amine] | -4% | 71% | 14% | 57% | 47% | 95% | active |
| Cc1cc(N2CCN(c3ccnc4cc(Cl)ccc34)CC2)nc(N2CCCCCC2)n1 [Compound A13, 4-(4-(2-(azepan-1-yl)-6-methylpyrimidin-4-yl)piperazin-1-yl)-7-chloroquinoline] | -11% | 47% | 3% | 48% | 14% | 88% | active |
| CN1CCN(c2nc(N3CCN(c4ccnc5cc(Cl)ccc45)CC3)cc(C(F)(F)F)n2)CC1 [Compound A23, 7-chloro-4-(4-(2-(4-methylpiperazin-1-yl)-6-(trifluoromethyl)pyrimidin-4-yl)piperazin-1-yl)quinoline] | -15% | -2% | 1% | 9% | 12% | 13% | active |
| COc1cc(Nc2nc(C)cc(N3CCN(c4ccnc5cc(C(F)(F)F)ccc45)CC3)n2)cc(OC)c1 [Compound A44, N-(3,5-dimethoxyphenyl)-4-methyl-6-(4-(7-(trifluoromethyl)quinolin-4-yl)piperazin-1-yl)pyrimidin-2-amine] | 0% | 7% | 8% | 26% | 26% | 18% | active |
| FC(F)(F)c1cc(N2CCN(c3ccnc4cc(Cl)ccc34)CC2)nc(N2CCNCC2)n1 [Compound A22, 7-chloro-4-(4-(2-(piperazin-1-yl)-6-(trifluoromethyl)pyrimidin-4-yl)piperazin-1-yl)quinoline] | -14% | -2% | 1% | 11% | 11% | 17% | active |
